Test results published in patent US20070254312A1, “Protein Kinase Inhibitors and Methods for Identiying Same” (priority 2004, published 2007).
Starred links: 1 amine or outer side, 2 acyl side, 3 side chain; linkers in the order of their positions; H or OH if unused. Non-standard residues stand in square brackets, D forms with d. Residues, ends and D or L forms follow the SMILES beside them. *: point of attachment. Benzoyl(4-(pyrrol-1-yl)) = O=C(c1ccc(-n2cccc2)cc1)*; Phenylacetyl(3,4-Cl2) = O=C(Cc1ccc(Cl)c(Cl)c1)*; Cysteamide = C(CS[*:3])N[*:1]; Dap = NC[C@H](N)C(=O)O

Experiments:
PKCτ = target: T1, PKCτ (Homo sapiens, UniProt P41743); test: PKC isoform assay, Example 1; assay type: biochemical
T1 construct: purchased Pan Vera
T1 sequence (P41743 1-596): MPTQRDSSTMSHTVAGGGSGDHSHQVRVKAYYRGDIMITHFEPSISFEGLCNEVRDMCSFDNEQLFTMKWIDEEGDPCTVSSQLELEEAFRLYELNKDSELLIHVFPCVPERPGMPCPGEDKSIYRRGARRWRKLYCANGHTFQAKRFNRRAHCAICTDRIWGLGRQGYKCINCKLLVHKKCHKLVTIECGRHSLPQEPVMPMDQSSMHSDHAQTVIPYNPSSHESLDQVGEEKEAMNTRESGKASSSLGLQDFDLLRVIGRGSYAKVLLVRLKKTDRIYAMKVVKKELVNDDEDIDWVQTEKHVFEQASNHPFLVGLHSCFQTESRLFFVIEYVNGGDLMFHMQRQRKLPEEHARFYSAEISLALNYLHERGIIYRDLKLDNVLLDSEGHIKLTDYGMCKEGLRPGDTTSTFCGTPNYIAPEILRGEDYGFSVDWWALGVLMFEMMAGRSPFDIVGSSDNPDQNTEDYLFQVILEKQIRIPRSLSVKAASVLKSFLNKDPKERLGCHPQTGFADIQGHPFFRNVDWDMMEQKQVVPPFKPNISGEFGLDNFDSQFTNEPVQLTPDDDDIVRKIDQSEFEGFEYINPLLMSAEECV
From the text: (§1) Protein Kinase C Assay (general). The peptides Ac-Ser-Phe-Arg-Arg-Arg-NH2 (for PKC α, β and γ) and acetyl-[…]NH2 (for PKC ε and ζ) were used as substrates.

PKC ι = target: T2, PKC ι (Homo sapiens, UniProt P41743); settings: literature values; relative to most potently inhibited isoform (=1); cited from earlier work
T2 construct: purchased Panvera
T2 sequence (P41743 1-596): T1 sequence (P41743 1-596)

PKCα = PKCα (Homo sapiens, UniProt P17252); settings: cited from earlier work
PKCγ = PKCγ (Homo sapiens, UniProt P05129); design: purchased Panvera; settings: literature values; relative to most potently inhibited isoform (=1); cited from earlier work
PKCε = target: T3, PKCε (Homo sapiens, UniProt Q02156); test: PKC isoform assay, Example 1; assay type: biochemical; design: purchased Pan Vera
T3 sequence (Q02156 1-737): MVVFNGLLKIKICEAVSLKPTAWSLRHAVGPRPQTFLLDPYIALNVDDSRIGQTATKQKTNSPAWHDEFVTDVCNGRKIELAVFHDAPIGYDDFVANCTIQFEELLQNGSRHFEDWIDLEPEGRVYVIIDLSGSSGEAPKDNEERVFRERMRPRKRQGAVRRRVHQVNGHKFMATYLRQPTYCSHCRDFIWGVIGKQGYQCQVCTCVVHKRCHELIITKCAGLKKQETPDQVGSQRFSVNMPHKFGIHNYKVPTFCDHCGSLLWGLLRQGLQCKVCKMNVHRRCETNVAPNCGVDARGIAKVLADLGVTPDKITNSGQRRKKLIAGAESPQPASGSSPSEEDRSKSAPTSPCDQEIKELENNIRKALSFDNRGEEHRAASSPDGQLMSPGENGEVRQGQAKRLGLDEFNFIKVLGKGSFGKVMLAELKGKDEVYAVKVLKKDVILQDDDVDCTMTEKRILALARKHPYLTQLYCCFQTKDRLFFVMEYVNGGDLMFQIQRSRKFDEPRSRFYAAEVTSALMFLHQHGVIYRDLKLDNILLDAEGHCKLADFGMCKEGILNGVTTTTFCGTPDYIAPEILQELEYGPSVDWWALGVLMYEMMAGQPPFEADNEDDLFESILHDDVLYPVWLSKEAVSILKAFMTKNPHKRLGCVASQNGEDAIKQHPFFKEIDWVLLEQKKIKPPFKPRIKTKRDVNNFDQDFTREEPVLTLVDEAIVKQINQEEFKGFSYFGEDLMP
Method: as §1
(§2) PKCε and ζ Assay (IC50 determinations). […] 10 μL enzyme diluted buffer containing 10 mM HEPES (pH 7.5), 10 mM DTT, BSA(3.8 mg/mL), 10 mM EDTA.4Na.2H2O and PKC (20 ng/μL) were added last to this buffer. Reactions were carried out as described above for the Protein Kinase Cα assay.

PKCζ = target: T4, PKCζ (Homo sapiens, UniProt Q05513); test: PKC isoform assay, Example 1; assay type: biochemical; design: purchased Pan Vera
T4 sequence (Q05513 1-592): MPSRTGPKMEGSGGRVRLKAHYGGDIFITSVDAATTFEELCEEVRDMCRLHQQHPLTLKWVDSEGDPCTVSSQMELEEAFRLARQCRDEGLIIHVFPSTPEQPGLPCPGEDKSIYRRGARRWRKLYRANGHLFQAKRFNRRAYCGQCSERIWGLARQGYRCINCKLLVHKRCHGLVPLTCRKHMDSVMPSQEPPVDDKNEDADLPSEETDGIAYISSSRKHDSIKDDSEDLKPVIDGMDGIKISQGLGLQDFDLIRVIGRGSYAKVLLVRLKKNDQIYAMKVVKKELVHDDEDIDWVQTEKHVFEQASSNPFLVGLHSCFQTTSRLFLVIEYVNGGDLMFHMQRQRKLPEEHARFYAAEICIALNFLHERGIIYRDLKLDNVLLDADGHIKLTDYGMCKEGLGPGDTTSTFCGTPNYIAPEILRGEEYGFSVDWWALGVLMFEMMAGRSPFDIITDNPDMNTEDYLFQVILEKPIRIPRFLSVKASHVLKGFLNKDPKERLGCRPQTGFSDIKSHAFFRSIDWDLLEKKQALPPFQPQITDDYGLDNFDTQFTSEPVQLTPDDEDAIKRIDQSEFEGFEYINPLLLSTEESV
Method: as §1, §2

selectivity for PKCα versus PKCτ (PKCτ): 940 fold
selectivity for PKCα versus PKCε (PKCε): 600 fold
selectivity for PKCα versus PKCζ (PKCζ): 640 fold
SMILES: CC(C)C[C@H](NC(=O)[C@H](C)NC(=O)CNC(=O)[C@H](CCCNC(=N)N)NC(=O)[C@H](CCCNC(=N)N)NC(=O)[C@H](C)NC(=O)Cc1ccc(Cl)c(Cl)c1)C(=O)N[C@@H](CCCNC(=N)N)C(=O)N[C@@H](CNC(=O)c1ccc(-n2cccc2)cc1)C(=O)N[C@@H](C)C(=O)NCCS [Compound 6] ({Phenylacetyl(3,4-Cl2)}-ARRGALR[Dap](Benzoyl(4-(pyrrol-1-yl)))A-Cysteamide)
Fold selectivity (IC50), PKC ι (PKC ι): 940 fold
Ki (PKCα; Lee et al., 2004, equals the Ki of compound 6 in Table 1, read-out: IC50 or Ki of the most potently inhibited isoform, PKC α (in parentheses)): 0.8 nM
Fold selectivity (IC50), PKC α (PKCα; literature values, relative to most potently inhibited isoform (=1)): 1 fold
Fold selectivity (IC50), PKC γ (PKCγ): 580 fold
